Experiments:
mice [1] = conditions: cited from earlier work
HIV-1 [2] = conditions: AIDS patients; cited from earlier work
HIV-1 [3] = conditions: alone; cited from earlier work
HIV-1BAL = HIV-1BAL replication (p24 ELISA) in human PBMC-derived monocytes pretreated 24 hours; format: cell-based; conditions: 1000, 100 and 10 ng/ml for 24 hours; 19 days after infection; FIG. 5
Procedure: To investigate the utility of the aforementioned findings, we investigated whether commercially available synthetic lipid IVA (ICN Inc.) suppressed the replication of HIV-1BAL in human PBMC-derived monocytes. Therefore, PBMCs were obtained as outlined in Section 6, see above, and placed into 12 well culture flat-bottom plate and incubated in CM (see example 1) for 12 days at 37° C. in 5% Co2. Non-adherent cells were removed and the cells were given fresh media every 2 days. After 6 days, the adherent PBMCs were treated with synthetic lipid IVA at 1000 ng/ml, 100 ng/ml and 10 ng/ml for 24 hours. The treated cells were subsequently infected with 0.200 ng of HIV-1BAL (Cocchi et al, supra) for 2 hours, washed twice and incubated for a further 19 days. Culture supernatants were then collected and the level of p24 in these supernatants was measured by ELISA (R&D Systems).
PBMC-derived monocytes were obtained as outlined in Section 8, see above. […] The treated cells were subsequently infected with 0.200 ng of HIV-1BAL (Cocchi et al., supra) for 2 hours, washed twice and incubated for a further 19 days. Culture supernatants were then collected and the level of p24 in these supernatants was measured by ELISA (R&D Systems).

human PBMCs [4] = experiment: human PBMC activation assay: proinflammatory cytokines (TNFα, IL-1β, IL-6) in supernatants by capture ELISA; format: cell-based; conditions: 1 μg/ml; 8 hr
Procedure: 50 ml of whole blood is mixed with an equal volume of RPMI (Life Technologies) and PBMCs are isolated by density gradient using lymphocyte separation medium according to the manufacturer's directions (Organon). The PBMCs are washed twice with RPMI then resuspended in 6 ml of ice cold sterile water and placed on ice for 30 sec to lyse the erythrocytes. The osmolarity is adjusted by adding 2 ml of ice cold 3.5% (w/v) NaCl; the PBMCs are harvested by centrifugation, washed with RPMI and resuspended in complete medium (CM; RPMI containing pyruvate, glutamine, PenStrep, and 10% endotoxin-free human AB serum (Life Technologies) at a density of 6×10^6 PBMCs/ml. CM containing the preparations to be assayed are placed into duplicate wells of a 96-well flat bottom culture late (Costar) at double the target final concentration. An equal volume of CM containing the PBMCs then is added to these wells and the culture plates are incubated at 37° C. in 5% CO2 for 8 hr. The supernatants are then removed and stored at 70° C. Quantitation of TNFα, IL-1β, IL-6, MIP-1α, MIP-1β and RANTES in these culture supernatants is achieved by capture ELISA (R&D Systems).

human PBMCs [5] = experiment: β chemokine (MIP-1α, MIP-1β, RANTES) secretion from human PBMCs, dose and time course, capture ELISA; format: cell-based
human PBMCs [6] = experiment: LPS antagonist test: TNFα from human PBMCs stimulated with W3110 LPS mixed with antagonist; format: cell-based; conditions: 1 μg/ml mixed with W3110 LPS 10 ng/ml; 8 hr
Procedure: Quantitation of TNFα, IL-1β, IL-6, MIP-1α and MIP-1β in these culture supernatants was achieved by capture ELISA (R&D Systems).
W3110 LPS (also cultured at 37° C.) from 1 ng/ml to 100 ng/ml alone and W3110 LPS (10 ng/ml) mixed with synthetic lipid IVA (1 μg/ml) were used as controls.

mice [7] = conditions: cited from earlier work; remark: listed apart in the source

2,3-diacyl-glucosamine-1-phosphate [lipid X]
pyrogenicity / toxicity in mice (mice [1]): non-pyrogenic in mice

CC(C)c1nc(CN(C)C(=O)N[C@H](C(=O)N[C@@H](Cc2ccccc2)C[C@H](O)[C@H](Cc2ccccc2)NC(=O)OCc2cncs2)C(C)C)cs1 [ABT-538]
CD4 lymphocyte counts (HIV-1 [2]): CD4 lymphocyte counts to rise substantially
plasma HIV-1 levels (HIV-1 [2]): causes plasma HIV-1 levels to decrease exponentially

Cc1cn([C@H]2C[C@H](N=[N+]=[N-])[C@@H](CO)O2)c(=O)[nH]c1=O [AZT, 3′-azido-2′,3′-dideoxythymidine]
effect on viral load (HIV-1 [3]): about 1 log reduction

CCCCCCCCCCC[C@@H](O)CC(=O)N[C@H]1[C@H](OC[C@H]2O[C@H](OP(=O)(O)O)[C@H](NC(=O)C[C@H](O)CCCCCCCCCCC)[C@@H](OC(=O)C[C@H](O)CCCCCCCCCCC)[C@@H]2O)O[C@H](CO)[C@@H](OP(=O)(O)O)[C@@H]1OC(=O)C[C@H](O)CCCCCCCCCCC [Lipid IVA]
replication of HIV-1BAL (p24) in PBMC-derived monocytes (HIV-1BAL): suppresses the replication of HIV-1^BAL in a dose-dependent manner
IL-1β in human PBMC culture supernatants after stimulation with LPS (human PBMCs [4]): 13 ± 1 pg/mL
IL-6 in human PBMC culture supernatants after stimulation with LPS (human PBMCs [4]): 7581 ± 20 pg/mL
induction of β chemokines (human PBMCs [5]): without Inducing Measurable Levels of β Chemokines
pyrogenicity / toxicity in mice (mice [1]): displays similar toxicity of that of lipid A in mice
TNFα (human PBMCs [6]): <30 pg/mL

CCCCCC/C=C/CCCCCC(=O)O[C@H](CCCCCCCCCCC)CC(=O)NC1C(OCC2OC(OP(=O)(O)O)C(NC(=O)CC(=O)CCCCCCCCCCC)C(OC(=O)C[C@H](O)CCCCCCC)C2O)OC(CO)C(OP(=O)(O)O)C1OC(=O)C[C@H](O)CCCCCCC (stereo partly drawn) [RsDPLA, R. sphaeroides diphosphoryl lipid A]
level of RANTES after stimulation (human PBMCs [5]; FIG. 3): not significantly elevated
time of peak production of MIP-1α and MIP-1β after stimulation (human PBMCs [5]; supernatants at 8, 16, 24, 48 hr, FIG. 3): 24 h
MIP-1α secretion (human PBMCs [5]; various doses, FIG. 2): stimulated the secretion of MIP-1α and MIP-1β in a dose-dependent manner
MIP-1β secretion (human PBMCs [5]; various doses, FIG. 2): stimulated the secretion of MIP-1α and MIP-1β in a dose-dependent manner

R. sphaeroides lipid A [RSLA]
LPS induced lethality (mice [7]): prevents LPS induced lethality in mice
